These results are taken from patent US20240408086A1, “USE OF LUVADAXISTAT FOR THE TREATMENT OF COGNITIVE IMPAIRMENT” (TAKEDA PHARMACEUTICAL COMPANY LIMITED, priority 2021, published 2024).

The assay has as its system rat hippocampus. Description: D-serine on short-term potentiation and long-term depression in rat hippocampal slices. The conditions noted are these: 1 mM D-serine vs controls. Also noted: species or system Sprague Dawley rats. On the procedure: To obtain rat hippocampal slices, 4-week-old Sprague Dawley rats (provided by Elevage Janvier, Le Genest-Saint-Isle, France) were euthanized by fast decapitation without anesthesia. The brain was quickly removed and soaked in ice-cold oxygenated buffer: 2 mM KCl, 1.2 mM NaH2PO4, 7 mM MgCl2, 0.5 mM CaCl2), 26 mM NaHCO3, 11 mM glucose, and 250 mM sucrose. Hippocampal slices were prepared at 400 μm thickness with a McILWAIN tissue chopper. […] Slices were continuously perfused with oxygenated aCSF during experiments. The animals were housed and used in accordance with French and European legislation.
Electrophysiological recordings were obtained from a single hippocampal slice placed on the chamber and perfused with aCSF at a constant rate. Extracellular field excitatory postsynaptic potentials (fEPSPs) were recorded in the CA1 stratum radiatum using a glass micropipette filled with aCSF. fEPSPs were evoked by electrical stimulation of Schaffer collaterals/commissural pathway at 0.1 Hz with a glass stimulating electrode placed in the stratum radiatum.
Acute high doses (1 mM) of D-serine induced hippocampal synaptic plasticity (short-term potentiation and long-term depression) compared with controls in the rat hippocampus (FIGS. 1A-1C). Data in FIGS. 1A and 1B were normalized to the 10-minute control period.

For the compound `N[C@H](CO)C(=O)O` [D-serine], the “Depression of EPSP amplitudes (long-term depression)” value (p=0.0374, unpaired t-test) is “significantly decreased the depression of EPSP amplitudes”. Where the note is “p=0.0603, unpaired t-test”, the “Potentiation of excitatory postsynaptic potential (EPSP) amplitudes (short-term potentiation)” value is recorded as “increased the potentiation of excitatory postsynaptic potential (EPSP) amplitudes, although this change was not statistically significant”.
